How the values were obtained:
CHO = assay: SRB cell proliferation assay; format: cell-based; settings: Cricetulus griseus, Table 3, AAD series, Chinese hamster ovarian cells
Procedure: (§1) The human ovarian cancer cell lines OVCAR-3, SKOV-3 and A2780 and primary cells human umbilical vein endothelial cells (HUVEC) and all other cell lines were obtained from the American Type Culture Collection (ATCC) and maintained according to their instructions. Astrocytes and glioma cell lines were kindly gifted by Dr. Kerry McDonald from Lowy Cancer Research Centre, University of New South Wales, Australia.
(§2) Cell proliferation was assessed using the sulforhodamine B (SRB) assay. Cells seeded in 96-well plate (2,000-3,000 cell/well) were treated with MPL (0, 1, 5, 10, 25, 50 and 100 μmol/L) for 72 h. Cells were then fixed, washed and stained with 100 μl of 0.4% (w/v) SRB dissolved in 1% acetic acid. Unbound dye was removed by five washes with 1% acetic acid before air drying. Bound SRB was solubilized with 100 μl of 10 mM Tris base (pH 10.5) and the absorbance read at 570 nm. Exactly the same procedure was used to assess MPL-SO2. Both agents were dissolved in ethanol and diluted with media to give the final concentrations required for cell culture assays.

A2780 = assay: SRB cell proliferation assay; format: cell-based; settings: Table 3, AAD series, human epithelial ovarian cancer
Procedure: as §1, §2

OVCAR-3 = assay: SRB cell proliferation assay; format: cell-based; settings: Table 3, AAD series, human epithelial ovarian cancer
Procedure: as §1, §2

HUVEC = assay: SRB cell proliferation assay; format: cell-based; settings: Homo sapiens, Table 3, AAD series, human umbilical vein endothelial cells
Procedure: as §1, §2

OVCAR-3 or A2780 cells [1] = assay: Cellular ATP levels and ADP/ATP ratio; format: cell-based, human
U87 glioma cells = assay: Autophagy (vacuole formation, LC3-II); format: cell-based; settings: chemo-resistant U87 glioma cells
OVCAR-3 or A2780 cells [2] = assay: Colony formation assay; format: cell-based, human; settings: higher concentrations of MPL; 72 h exposure, 2 weeks drug free
Procedure: For colony formation assay, 5×10^6 cells, such as OVCAR-3 or A2780 cells, were plated in 100 mm Petri dishes and allowed to attach overnight. Media were aspirated off and exponentially growing cells were incubated with various concentrations of MPL for 72 h. At this point, the medium was aspirated, the dishes were washed with PBS, and drug free medium was added to each plate. Media were changed twice weekly for 3 weeks. Following this, plates were gently washed with PBS and cells were fixed with 100% ethanol and stained with a 0.5% solution of filtered crystal violet. Colonies consisting of more than 50 cells were counted under an inverted microscope.
To determine the effect of MPL on cell integrity and capacity to rid itself from drug effects following drug exposure and withdrawal, cells were incubated with MPL (0, 5, 10, 25 μM) for 72 h, washed with PBS, transferred to agar plates, cultured with growth medium and incubated under standard conditions for 2 weeks. Cells were then fixed with 100% methanol and stained with 1% crystal violet. Colonies (Cluster of cells greater than 50) were counted under microscope (magnification ×5). Number of colonies counted for different experimental groups is expressed as percentage of the control (FIG. 14).

OVCAR-3 tumors = assay: s.c. OVCAR-3 xenografts in nude mice; format: in vivo; settings: for s.c. tumor growth: i.p., three times weekly
Procedure: Female nude mice (6 weeks old) were purchased from Biological Resources (University of New South Wales). Institutional animal ethics approvals covered procedures carried out on mice. Briefly, 2.5×10^6 log-phase growing OVCAR-3 cells were injected s.c. into the left flank of each mouse. Animals were weighed once weekly while their tumor volumes were determined twice weekly. Tumor growth was monitored by caliper measurements of orthogonal diameters, and the estimated tumor volume was calculated based on the formula […], where width is the shorter of the two orthogonal measurements. Based on institutional ethics approval, mice were euthanized before the tumor volume reached 500 mm3. Treatment was initiated on day 8 post tumor cell inoculation when mice were randomized and assigned to one of MPL or vehicle treated groups (5-6 mice per group). MPL was suspended in […] methylcellulose (0.5% w/v HPMC), sterilized by sonnicator and administered every other day either intraperitoneally (i.p) or orally as gavage (100 μL).
In the first pilot trial, the drug was administered i.p. at 2.5 or 25 mg/kg body weight, three times weekly for 2 weeks.
Following the outcome, in the next set of animals, the dose was increased to 25 and 50 mg/kg, three times weekly.
In the last (third) pilot study, mice were treated orally. The doses administered were 50 and 100 mg/kg three times weekly. In all these trials, mice in control groups received similar volume of the vehicle (0.5% HPMC). Tumor histology/immunohistochemistry was performed on formalin fixed tumor slices according to standard procedures.

MCF-7 = assay: SRB cell proliferation assay; format: cell-based; settings: Homo sapiens, MCF7, MCF-7, breast cancer, 72 h
Procedure: as §1, §2

SW-876 = assay: SRB cell proliferation assay; format: cell-based; settings: SW-876, liposarcoma
Procedure: as §1, §2

HaCat = assay: SRB cell proliferation assay; format: cell-based; settings: Homo sapiens, keratinocyte
Procedure: as §1, §2

HT-29 5m11 = assay: SRB cell proliferation assay; format: cell-based; settings: Homo sapiens; HT-29 5m11, colorectal cancer
Procedure: as §1, §2

LN-18 = assay: SRB cell proliferation assay; format: cell-based; settings: Homo sapiens; LN-18, glioma
Procedure: as §1, §2

T98G = assay: SRB cell proliferation assay; format: cell-based; settings: Homo sapiens, glioma
Procedure: as §1, §2

HCT-116 = assay: SRB cell proliferation assay; format: cell-based; settings: Homo sapiens; HCT-116, colorectal cancer
Procedure: as §1, §2

HT-29 = assay: SRB cell proliferation assay; format: cell-based; settings: Homo sapiens; HT-29, colorectal cancer
Procedure: as §1, §2

nicotinic receptors = assay: MPL antiproliferative effect after pre-treatment with nicotinic agonists or antagonists; format: cell-based; settings: 30 min pre-treatment, MPL 5 μM, 72 h
Procedure: Cells were pre-treated (30 min) with increasing concentrations of nicotine, carbachol or the receptor antagonists, atropine, mecamylamine, tubocurarine, and α-bungarotoxin. MPL (5 μM) was added and left in the cell culture incubator for 72 h. Each drug concentration was tested in quadruplicate and each experiment was repeated twice. Combine values (mean±SEM) are presented as % control.

[3] = test system: cdk2, cdk4, cyclins A, and E; assay: Western blot of cell cycle regulatory proteins; format: cell-based; settings: MPL 0, 5, 10, 25 μM
Procedure: Protein expression in cells was determined using western blot analysis. After treatment with the indicated concentrations of MPL, cell lysates were prepared and probed with antibodies for cdk2, cdk4, cyclin A, cyclin E, PARP-1 (1:1000 dilutions; Cell Signalling Technology), and p53 (1:200 dilutions; Santa Cruz Biotechnology).

cancer cell lines = assay: SRB cell proliferation assay, comparison across cell lines; format: cell-based
Procedure: as §2

cancer cell-lines = assay: Thymidine incorporation; format: cell-based
OVCAR-3 or A2780 cells [4] = assay: Cell cycle analysis by flow cytometry; format: cell-based, human; settings: 25 μM MPL
Procedure: The effect of MPL on the cell cycle was determined using standard flow cytometry analysis protocols and procedures. Briefly, 0.7×10^6 million cells seeded in 25 cm^3 flasks and allowed to adhere overnight were treated with MPL for 24 or 48 h. Cells were collected with trypsinization and pooled with the cells floating in the medium. The cell suspensions were centrifuged, washed with PBS and fixed with methanol. Cells were then washed, resuspended in propodium iodide and ribonuclease A in PBS for 30 min at room temperature and analyzed by flow cytometry (Becton Dickinson FACSort).

[5] = mammals; cited from earlier work

CC(C#N)(COc1ccccc1Cl)NC(=O)c1ccc(C(F)(F)F)cc1 (centres unmarked) [AAD 450]
IC50 (CHO): 45.9 µM | IC50 (A2780): 33.5 ± 8.5 µM | IC50 (OVCAR-3): 23.9 ± 1.45 µM | IC50 (HUVEC): 96.5 µM

CC(C#N)(COc1cc(Cl)ccc1Cl)NC(=O)c1ccc(OC(F)(F)F)cc1 (centres unmarked) [AAD 1154]
IC50 (CHO): 34.8 µM | IC50 (A2780): 28 ± 4.5 µM | IC50 (OVCAR-3): 20.5 ± 0.5 µM | IC50 (HUVEC): 61.1 µM

C[C@](C#N)(COc1cc(C#N)ccc1C(F)(F)F)NC(=O)c1ccc(SC(F)(F)F)cc1 [MPL, N-[(1S)-1-cyano-2-(5-cyano-2-trifluoromethyl-phenoxy)-1-methyl-ethyl]-4-trifluoromethylsulfanyl-benzamide]
cellular ratio of ADP/ATP (OVCAR-3 or A2780 cells [1]): reduces the cellular ratio of ADP/ATP | expression of LC3-II (autophagy) (U87 glioma cells): increased expression of LC3-II in a concentration-dependent manner | clonogenic ability (OVCAR-3 or A2780 cells [2]): almost complete loss of clonogenic ability | tumor tissue histology (OVCAR-3 tumors; MPL treated tumors from the in vivo trials): extensive necrosis | s.c. tumor growth (OVCAR-3 tumors; first trial, 25 mg/kg, female nude mice): particularly effective | s.c. tumor growth (OVCAR-3 tumors; second trial, 50 mg/kg compared with 25 mg/kg): more effective in retarding tumor growth | IC50 (MCF-7): 15.4 ± 1.1 µM | IC50 (SW-876): 14.6 µM | IC50 (HaCat): 21.2 ± 3.2 µM | IC50 (HT-29 5m11): 10.4 µM | IC50 (LN-18): 9.38 ± 0.79 µM | IC50 (T98G): 18.2 ± 0.61 µM | IC50 (HCT-116): 10.5 ± 0.02 µM | IC50 (HT-29): 5.86 ± 0.2 µM | MPL-induced inhibition of proliferation after pre-treatment with nicotinic agonists or antagonists (nicotinic receptors): neither positively nor negatively affected | expression of cell cycle regulatory proteins [3]: lower levels of cdk2, cdk4, cyclins A, and E | sensitivity of chemo-resistant cell lines to antiproliferative action (cancer cell lines; ovarian chemo-resistant, glioma temozolomide resistant, breast cancer tamoxifen resistant cells): sensitive | thymidine incorporation into the cell (DNA synthesis) (cancer cell-lines): Blocks thymidine incorporation | percentage of cells in G2-M phase (OVCAR-3 or A2780 cells [4]): more than three times higher | dosage well tolerated [5]: 1000 mg of MPL per kg of body weight per 24 hours

C[C@](C#N)(COc1cc(C#N)ccc1C(F)(F)F)NC(=O)c1ccc(S(=O)(=O)C(F)(F)F)cc1 [MPL-SO2, monepantel sulphone]
potency compared with MPL (cancer cell lines; SRB proliferation assay): as potent as MPL
